The values that follow come from ChEMBL document CHEMBL1145667, “Carboxyatractyloside: A Compound from Xanthium strumarium and Atractylis gummifera with Plant Growth Inhibiting Properties. The Probable "Inhibitor A"” (1983).

Molecules are shown by their SMILES. Activity calls are given as the source filed them. No cut-off for these calls is given here.

For experiment [1], the system named is Triticum aestivum. The experiment in a line: Growth inhibition of etiolated wheat coleoptiles at 0.60 to 0.90 retention factor by paper chromatograms relative to control. The class given is functional.
Experiment [2] concerns Triticum aestivum. The experiment in a line: Growth inhibition of etiolated wheat coleoptiles at 1000 uM after 24 hrs at 22 degC in dark relative to control. The class given is functional. The conditions noted are these: read-out: GI.
The subject of experiment [3] is Triticum aestivum. The experiment in a line: Growth inhibition of etiolated wheat coleoptiles at 100 uM after 24 hrs at 22 degC in dark relative to control. Type of experiment: functional. The conditions noted are these: read-out: GI.
Experiment [4] deals with Triticum aestivum. The experiment in a line: Growth inhibition of etiolated wheat coleoptiles at 10 uM after 24 hrs at 22 degC in dark relative to control. Type of experiment: functional. The conditions noted are these: read-out: GI.
In experiment [5] the test system is Nicotiana tabacum. The experiment in a line: Growth inhibition of green house tobacco seedlings assessed as cupping of leaves at 100 uM within 24 hrs. The class given is functional, organism-based.
Experiment [6] has as its system Nicotiana tabacum. Description: Growth inhibition of green house tobacco seedlings assessed as cupping of the leaves at 10000 uM after 72 hrs at 18.5 degC. The class given is functional, organism-based.
The subject of experiment [7] is Triticum aestivum. The experiment in a line: Growth inhibition of etiolated wheat coleoptiles at 0.20 to 0.30 retention factor by paper chromatograms relative to control. The class given is functional. Also on record: scale not given: the % may be the effect or the level left.
For experiment [8], the system named is Zea mays. The experiment in a line: Growth inhibition of green house corn seedling assessed as stunting at 100 uM after 72 hrs. Type of experiment: functional, organism-based.
Experiment [9] concerns Nicotiana tabacum. The experiment in a line: Growth inhibition of green house tobacco seedlings assessed as cupping of the leaves at 1000 uM after 72 hrs at 18.5 degC. The class given is functional, organism-based.
Experiment [10] has as its system Nicotiana tabacum. The experiment in a line: Growth inhibition of green house tobacco seedlings assessed as cupping of the leaves at 1000 uM at 18.5 degC after 24 hrs. The class given is functional, organism-based.
Experiment [11] relates to Zea mays. The experiment in a line: Growth inhibition of green house corn seedling assessed as whorls and chlorosis of the leaf margins at 1000 uM relative to control. Type of experiment: functional. The conditions noted are these: read-out: GI.
For experiment [12], the system named is Zea mays. The experiment in a line: Growth inhibition of green house corn seedling assessed as necrotic lesions at 10000 uM after 1 week relative to control. The class given is functional. The conditions noted are these: 168 h, read-out: GI.
Experiment [13] has as its system Triticum aestivum. Description: Growth inhibition of etiolated wheat coleoptiles at 0.10 to 0.20 retention factor by paper chromatograms relative to control. Also on record: scale not given: the % may be the effect or the level left. The class given is functional.
The test system of experiment [14] is Zea mays. The experiment in a line: Growth inhibition of green house corn seedling assessed as chlorosis at 1000 uM after 72 hrs. The class given is functional, organism-based.
For experiment [15], the system named is Nicotiana tabacum. The experiment in a line: Growth inhibition of green house tobacco seedlings assessed as cupping of leaves resembling tobacco at 10000 uM at 2 to 7 degC after 24 hrs. The class given is functional, organism-based.
Experiment [16] concerns Triticum aestivum. Description: Growth inhibition of etiolated wheat coleoptiles at 0.00 to 0.10 retention factor by paper chromatograms relative to control. The class given is functional. Also on record: scale not given: the % may be the effect or the level left.
Experiment [17] concerns Nicotiana tabacum. Description: Growth inhibition of green house tobacco seedlings assessed as cupping of leaves resembling tobacco at 1000 uM at 2 to 7 degC after 24 hrs. Type of experiment: functional, organism-based.
The subject of experiment [18] is Nicotiana tabacum. Description: Growth inhibition of green house tobacco seedlings assessed as cupping of the leaves at 10000 uM at 18.5 degC after 24 hrs. The class given is functional, organism-based.
The test system of experiment [19] is Zea mays. Description: Growth inhibition of green house corn seedling assessed as stunting at 10000 uM after 1 week relative to control. The class given is functional. The conditions noted are these: 168 h, read-out: GI.
Experiment [20] has as its system Zea mays. Description: Growth inhibition of green house corn seedling assessed as chlorosis at 100 uM after 72 hrs. The class given is functional, organism-based.
Experiment [21] has as its system Zea mays. The experiment in a line: Growth inhibition of green house corn seedling assessed as necrotic lesions at 10000 uM after 72 hrs. Type of experiment: functional, organism-based.
Experiment [22] has as its system Nicotiana tabacum. The experiment in a line: Growth inhibition of green house tobacco seedlings assessed as cupping of leaves at 10000 uM within 24 hrs. Type of experiment: functional, organism-based.
Experiment [23] deals with Zea mays. The experiment in a line: Growth inhibition of green house corn seedling at 1000 uM after 2 weeks relative to control. The class given is functional. The conditions noted are these: 336 h, read-out: GI.
Experiment [24] relates to Nicotiana tabacum. The experiment in a line: Growth inhibition of green house tobacco seedlings assessed as cupping of the leaves at 100 uM at 18.5 degC after 24 hrs. Type of experiment: functional, organism-based.
Experiment [25] deals with Nicotiana tabacum. The experiment in a line: Growth inhibition of green house tobacco seedlings assessed as cupping of the leaves at 100 uM after 72 hrs at 18.5 degC. Type of experiment: functional, organism-based.
The test system of experiment [26] is Zea mays. Description: Growth inhibition of green house corn seedling assessed as stunting at 1000 uM after 72 hrs. Type of experiment: functional, organism-based.
Experiment [27] has as its system Nicotiana tabacum. Description: Growth inhibition of green house tobacco seedlings assessed as cupping of leaves at 1000 uM within 24 hrs. The class given is functional, organism-based.
The subject of experiment [28] is Nicotiana tabacum. The experiment in a line: Growth inhibition of green house tobacco seedlings assessed as cupping of leaves resembling tobacco at 100 uM at 2 to 7 degC after 24 hrs. The class given is functional, organism-based.
Experiment [29] concerns Zea mays. Description: Growth inhibition of green house corn seedling at 10000 uM after 2 weeks relative to control. Type of experiment: functional. The conditions noted are these: 336 h, read-out: GI.

As for `CC1=CC(=O)CC(C)(C)C1(O)/C=C/C(C)=C\C(=O)O` (racemic) [ABSCISIC ACID], the “growth inhibition (GI)” value in the experiment on Triticum aestivum [1] is listed as 100%. Moreover, in the experiment with Triticum aestivum [2], the inhibition of growth at 1000 µM was determined as 100%. Further, the inhibition of growth at 100 µM with Triticum aestivum [3] came to 90%. Further, the inhibition of growth at 10 µM with Triticum aestivum [4] was 69%.
With `C=C1[C@H]2CC[C@H]3[C@]4(C)C[C@H](O[C@@H]5O[C@H](CO)[C@@H](OS(=O)(=O)O)[C@H](OS(=O)(=O)O)[C@H]5OC(=O)CC(C)C)CC(C(=O)[O-])(C(=O)[O-])[C@H]4CC[C@]3(C2)[C@H]1O.[K+].[K+]` [POTASSIUM CARBOXYATRACTYLOSIDE], the result with Nicotiana tabacum [5], in the experiment with Nicotiana tabacum [6], in the experiment with Zea mays [8], with Nicotiana tabacum [9], in the experiment on Nicotiana tabacum [10] and in the experiment with Zea mays [14] was Active. Moreover, the outcome in the experiment on Nicotiana tabacum [15], in the experiment with Nicotiana tabacum [17], with Nicotiana tabacum [18], in the experiment on Zea mays [20], with Zea mays [21] and in the experiment on Nicotiana tabacum [22] was Active. Further, the outcome in the experiment on Nicotiana tabacum [24], in the experiment with Nicotiana tabacum [25], in the experiment on Zea mays [26], with Nicotiana tabacum [27] and in the experiment on Nicotiana tabacum [28] was Active. Besides, the Activity in the experiment on Triticum aestivum [7] was found to be 86.4%; in the experiment with Triticum aestivum [13], 76.7%; in the experiment on Triticum aestivum [16], 88.4%. Further, the values for the inhibition of growth at 1000 µM with Zea mays [11], in the experiment with Triticum aestivum [2] and with Zea mays [23] were 25%, 100% and 14%, respectively. Moreover, the inhibition of growth at 10000 µM stood at 50% with Zea mays [12], 50% in the experiment with Zea mays [19] and 43% in the experiment with Zea mays [29]. Moreover, in the experiment on Triticum aestivum [3], the inhibition of growth at 100 µM is 91%. The inhibition of growth at 10 µM in the experiment with Triticum aestivum [4] is 48%.
